US20260130933A1, “PHARMACEUTICAL COMPOSITION FOR PREVENTION OR TREATMENT OF NEPHROPATHY AND/OR DIABETES MELLITUS, COMPRISING ENAVOGLIFLOZIN” (DAEWOONG PHARMACEUTICAL CO., LTD., priority 2022, published 2026)

Experiment: Example 1: phase 3 trial, enavogliflozin 0.3 mg once a day as monotherapy vs placebo for 24 weeks in patients with type 2 diabetes (HbA1c, FPG, C-peptide, body weight, lipids, blood pressure, HOMA, UACR, UGCR, adiponectin, leptin, safety)
Type: in vivo, human
Details: for Change from baseline in HOMA-IR, ANCOVA LS mean difference / Change from baseline in HOMA-β, ANCOVA LS mean difference / Change from baseline in UACR, ANCOVA LS mean difference / Change from baseline in UGCR, ANCOVA LS mean difference / Change from baseline in adiponectin, ANCOVA LS mean difference / Change from baseline in leptin, ANCOVA LS mean difference: 0.3 mg vs placebo
Protocol: When a subject voluntarily gave written consent to participate in this clinical trial, a screening test was conducted. […] However, when the administration of a hypoglycemic agent was interrupted before the clinical trial Visit 1 (screening), at least an 8-week washout period, including the discontinuation period, was required, and during this period, a stable diet and exercise program was followed. Naïve patients were screened without a separate washout period, and the criteria for naïve patients were defined as patients who had not been administered hypoglycemic agents within 24 weeks prior to the date of obtaining written consent. […] In addition, they were instructed to maintain regular exercise and dietary control starting from 8 weeks prior to screening without changing their daily life patterns during the clinical trial period.

[1] = Week 18, LOCF, full analysis set, 0.3 mg
[2] = Week 18, LOCF, full analysis set
[3] = Week 24, LOCF, full analysis set, 0.3 mg
[4] = Week 24, LOCF, full analysis set

OC[C@H]1O[C@@H](c2cc(Cc3ccc(C4CC4)cc3)c(Cl)c3c2CCO3)[C@H](O)[C@@H](O)[C@@H]1O [Enavogliflozin, (2S,3R,4R,5S,6R)-2-(7-chloro-6 (4-cyclopropylbenzyl)-2,3-dihydrobenzofuran-4-yl)-6-(hydroxymethyl)tetrahydro-2H-pyran-3,4,5-triol]
Change from baseline in HOMA-IR, Median [1]: −1.10 | Change from baseline in HOMA-β, ANCOVA LS mean (SE) [1]: 28.64 | Change from baseline in HOMA-β, Mean (SD) [1]: 23.65 | Change from baseline in HOMA-β, Median [1]: 5.95 | Change from baseline in UACR, ANCOVA LS mean (SE) [1]: -5.53 g/kg | Change from baseline in UACR, Mean (SD) [1]: -8720 mg/kg | Change from baseline in UACR, Median [1]: -0.75 g/kg | Change from baseline in UGCR, ANCOVA LS mean (SE) [1]: 51.70 mg/mg | Change from baseline in UGCR, Mean (SD) [1]: 50.96 mg/mg | Change from baseline in UGCR, Median [1]: 54.29 mg/mg | Change from baseline in adiponectin, ANCOVA LS mean (SE) [1]: 0.97 µg/mL | Change from baseline in adiponectin, Mean (SD) [1]: 0.83 µg/mL | Change from baseline in adiponectin, Median [1]: 0.61 µg/mL | Change from baseline in leptin, ANCOVA LS mean (SE) [1]: -2.70 ng/mL | Change from baseline in leptin, Mean (SD) [1]: -2.20 ng/mL | Change from baseline in leptin, Median [1]: -1.21 ng/mL | HOMA-IR, Mean (SD) [1]: 1.99 | HOMA-IR, Median [1]: 1.51 | HOMA-β, Mean (SD) [1]: 70.05 | HOMA-β, Median [1]: 43.85 | Leptin, Mean (SD) [1]: 8.96 ng/mL | Leptin, Median [1]: 6.05 ng/mL | UACR, Mean (SD) [1]: 19480 mg/kg | UACR, Median [1]: 10.50 g/kg | UGCR, Mean (SD) [1]: 52.38 mg/mg | UGCR, Median [1]: 54.51 mg/mg | Change from baseline in HOMA-IR, ANCOVA LS mean difference [2]: −1.49 | Change from baseline in HOMA-β, ANCOVA LS mean difference [2]: 22.40 | Change from baseline in UACR, ANCOVA LS mean difference [2]: -13.39 g/kg | Change from baseline in UGCR, ANCOVA LS mean difference [2]: 47.66 mg/mg | Change from baseline in adiponectin, ANCOVA LS mean difference [2]: 1.04 µg/mL | Change from baseline in leptin, ANCOVA LS mean difference [2]: -2.36 ng/mL | Adiponectin, Mean (SD) [3]: 9.07 µg/mL | Adiponectin, Median [3]: 7.57 µg/mL | Change from baseline in HOMA-IR, ANCOVA LS mean (SE) [3]: −1.57 | Change from baseline in HOMA-IR, Mean (SD) [3]: −1.52 | Change from baseline in HOMA-IR, Median [3]: −0.99 | Change from baseline in HOMA-β, ANCOVA LS mean (SE) [3]: 7.97 | Change from baseline in HOMA-β, Mean (SD) [3]: 8.24 | Change from baseline in HOMA-β, Median [3]: 6.10 | Change from baseline in UACR, ANCOVA LS mean (SE) [3]: -4.31 g/kg | Change from baseline in UACR, Mean (SD) [3]: -6750 mg/kg | Change from baseline in UACR, Median [3]: -0.15 g/kg | Change from baseline in UGCR, ANCOVA LS mean (SE) [3]: 49.76 mg/mg | Change from baseline in UGCR, Mean (SD) [3]: 48.97 mg/mg | Change from baseline in UGCR, Median [3]: 50.09 mg/mg | Change from baseline in adiponectin, ANCOVA LS mean (SE) [3]: 1.25 µg/mL | Change from baseline in adiponectin, Mean (SD) [3]: 1.28 µg/mL | Change from baseline in adiponectin, Median [3]: 1.08 µg/mL | Change from baseline in leptin, ANCOVA LS mean (SE) [3]: -2.36 ng/mL | Change from baseline in leptin, Mean (SD) [3]: -2.07 ng/mL | Change from baseline in leptin, Median [3]: -0.84 ng/mL | HOMA-IR, Mean (SD) [3]: 1.94 | HOMA-IR, Median [3]: 1.58 | HOMA-β, Mean (SD) [3]: 54.64 | HOMA-β, Median [3]: 46.65 | Leptin, Mean (SD) [3]: 9.09 ng/mL | Leptin, Median [3]: 6.89 ng/mL | UACR, Mean (SD) [3]: 21440 mg/kg | UACR, Median [3]: 9.00 g/kg | UGCR, Mean (SD) [3]: 50.40 mg/mg | UGCR, Median [3]: 50.80 mg/mg | Change from baseline in HOMA-IR, ANCOVA LS mean difference [4]: −1.94 | Change from baseline in HOMA-β, ANCOVA LS mean difference [4]: 5.88 | Change from baseline in UACR, ANCOVA LS mean difference [4]: -13.92 g/kg | Change from baseline in UGCR, ANCOVA LS mean difference [4]: 47.36 mg/mg | Change from baseline in adiponectin, ANCOVA LS mean difference [4]: 0.98 µg/mL | Change from baseline in leptin, ANCOVA LS mean difference [4]: -2.99 ng/mL | Body weight, Mean (week 6): 66.81 kg | Diastolic blood pressure, Mean (week 6): 73.81 mmHg | FPG change from baseline, LS mean (SE) (week 6): −27.78(2.47) mg/dL | FPG change from baseline, Mean (SD) (week 6): −25.86(20.19) mg/dL | FPG, Mean (SD) (week 6): 115.19(14.55) mg/dL | HDL-C change from baseline, LS mean (week 6): 2.40 mg/dL | HDL-C change from baseline, Mean (week 6): 2.07 mg/dL | HDL-C, Mean (week 6): 53.79 mg/dL | HbA1c change from baseline, LS mean (SE) (week 6): −0.67(0.05) % p | HbA1c change from baseline, Mean (SD) (week 6): −0.63(0.39) % p | HbA1c, Mean (SD) (week 6): 7.01(0.59) % | LDL-C change from baseline, LS mean (week 6): 1.23 mg/dL | LDL-C change from baseline, Mean (week 6): 1.55 mg/dL | LDL-C, Mean (week 6): 96.18 mg/dL | Subjects achieving HbA1c target of <6.5% (week 6): 12(14.81) % | Subjects achieving HbA1c target of <7% (week 6): 40(49.38) % | Subjects achieving therapeutic glycemic response (HbA1c change >0.5% or HbA1c<7%) (week 6): 61(75.31) % | Systolic blood pressure, Mean (week 6): 123.32 mmHg | body weight change from baseline, LS mean (week 6): -2.03 kg | body weight change from baseline, Mean (week 6): -2.05 kg | diastolic blood pressure change from baseline, LS mean (week 6): −2.99 mmHg | diastolic blood pressure change from baseline, Mean (week 6): −2.65 mmHg
